The EC50 is the midpoint of the concentration-response curve.

Several values for one entry are separate records, joined by “and”; a condition that tells them apart may be missing. Equal entries are not always repeated. *1 amine or outer side, *2 acyl side, *3 side chain or, on linkers, in order; H or OH if unused. Bridges are numbered along the chain shown (N, C = ends). Where no end group is shown, it is not given here. [ ]: non-standard residue; d: D form. d(γGlu) = O=C(O)[C@@H](CCC(=O)[*:2])N[*:1]; 12Ado = NCCCCCCCCCCCC(=O)O

Assay [1] has as its system Effector cells (ADCC reporter cells) with Daudi cells. Nature of the assay: ADCC reporter assay: Daudi cells, IVIG and ADCC reporter effector cells (luciferase, RLU). In kind it is cell-based. To be noted: IVIG; for Luminescence, ADCC reporter assay: 18 h, duplicate columns. On the procedure:
Daudi (ATCC CCL-213) cells were resuspended in Opti-MEM (Thermo Fisher Scientific #31985070), counted (Life Technologies Countless II cell counter) and plated (5,000 cells in 25 uL/well; Corning plates: 3917). Compounds w diluted in DMSO (MP 191418) to 1000× the starting concentration used in the assay into a 96 well polypropylene plate (Corning 3357). They were then serially diluted in ½ log increments to generate 8 concentrations in DMSO (assay dependent). These DMSO stocks were then step diluted 1/250 into Opti-MEM. Step diluted compound range was then added into the polypropylene assay plate 25 uL/well. The human antibody solution (Grifols IVIG Fleogogamma #61953-0005-2) was diluted to 40 ug/mL and added 25 uL/well. Effector cells (ADCC reporter cells—Promega kit: G7018) were added 37,500 in 25 uL/well. The assay was then incubated 18 h at 37° C. Following the induction period, the plate was equilibrated to 25° C. followed the addition of the luciferase substrate (75 uL/well, 1 vial in 10 mL of Bio-Glo assay buffer, Promega kit: G7018). The luminescence was measured (Biotek Synergy H1 microplate reader).
In general terms: In a reporter assay the amount or activity of a reporter protein is the signal.

For a further assay, the system named is Daudi cells. Nature of the assay: Ternary binding assay: recruitment of PE-labeled human IgG1k to Daudi cells (flow cytometry, MFI). In kind it is cell-based. Particulars: duplicate columns. On the procedure: Various technologies can be utilized to assess and/or characterize recruitment of antibodies to target cells, e.g., cancer cells. One such assay is a ternary binding assay. An exemplary protocol is described herein. Compounds were diluted in DMSO (MP 191418) to 1000× the starting concentration used in the assay into a 96 well polypropylene plate (Corning 3357). They were then serially diluted in ½ log increments to generate 8-12 concentrations in DMSO (assay dependent). These DMSO stocks were then step diluted 1/100 into PBS (VWR Cat. #20012043). Step diluted compound range was then added into the polypropylene assay plate 1/10 the volume of the assay volume. Daudi (ATCC CCL-213), a non-adherent cell line, were counted and centrifuged and resuspended at a concentration of 100,000 cells per 90 ul in Flow buffer: 1% BSA (American Bio AB01088-00100); 0.5 mM EDTA (VWR 45001-122); PBS (VWR Cat. #20012043) with 11.1 ug/mL human IgG1k Phycoerythrin labeled (SouthernBiotech #0151K-09 PE). The cells were then added into the polypropylene plate with the step diluted compounds and incubated at 37° C. for 30 min. At the end of the incubation, the cells were centrifuged and washed 2× with How buffer containing 0.5% Tween 20 (BP337-500). Samples were analyzed on a BD FacsCelesta. Mean fluorescence was analyzed using Graphpad Prism and curves were fit using log(inhibitor) vs. response—Variable slope (four parameters).

Assay [2] concerns the target CD38 on Daudi cells (human) (UniProt P28907). The assay can be described thus: ternary binding, flow cytometry: Daudi cells + PE human IgG1k. (A flow cytometer gives signals particle by particle.)

For the molecule `CCCCC[C@@H]1NC(=O)[C@H](CCCNC(=N)N)NC(=O)[C@H](C)NC(=O)CSC[C@@H](C(=O)NCCOCCOCCOCCOCCOCCOCCOCCOCCC(=O)NCCOCCOCCOCCOCCOCCOCCOCCOCCC(=O)N[C@@H](CC(=O)O)C(=O)N[C@H]2CSSC[C@@H](C(=O)N[C@H](C(=O)O)[C@@H](C)O)NC(=O)[C@H](Cc3c[nH]c4ccccc34)NC(=O)[C@H](C(C)C)NC(=O)[C@H](CC(C)C)NC(=O)[C@H](CCC(=O)O)NC(=O)CNC(=O)[C@H](CC(C)C)NC(=O)[C@H](Cc3c[nH]cn3)NC(=O)[C@H](Cc3c[nH]c4ccccc34)NC(=O)[C@H](C)NC2=O)NC(=O)[C@H](CC(=O)O)NC(=O)[C@H](CCCCC)NC(=O)[C@H](Cc2ccc(-c3ccccc3)cc2)NC(=O)[C@H](CC(C)C)NC(=O)[C@H](C(C)C)NC(=O)[C@H](CCC(N)=O)NC(=O)[C@H](CC(=O)O)NC(=O)[C@H](Cc2c[nH]cn2)NC(=O)[C@H](Cc2ccc(O)cc2)NC1=O` [I-41], the “Luminescence, ADCC reporter assay” value in assay [1] (compound 0.3 nM) is 4814 RLU and 4964 RLU; in assay [1] (compound 1 nM) it was 6793 RLU and 6656 RLU; in assay [1] (compound 3 nM) it was 15011 RLU and 15516 RLU; in assay [1] (compound 10 nM) it was 26140 RLU and 28413 RLU; in assay [1] (compound 30 nM) it was 35410 RLU and 36310 RLU; in assay [1] (compound 100 nM) it was 40904 RLU and 39344 RLU. Also, the “Luminescence, ADCC reporter assay” value in assay [1] (compound 300 nM) is 38409 RLU and 39619 RLU; in assay [1] (compound 1000 nM), 29516 RLU and 26828 RLU. Besides, the “MFI, recruitment of PE-labeled human IgG1k to Daudi cells” value (“MFI, recruitment” below) is 4489 and 2739 with Daudi cells (compound 0.03 nM); 7612 and 4790 in the assay on Daudi cells (compound 0.1 nM); 3076 and 2422 in the assay on Daudi cells (compound 0.3 nM); 5751 and 3841 in the assay on Daudi cells (compound 1 nM); 5283 and 6064 in the assay on Daudi cells (compound 3 nM); 9033 and 5065 in the assay with Daudi cells (compound 10 nM). Moreover, the “MFI, recruitment” value was 10036 and 10734 in the assay with Daudi cells (compound 30 nM); 19188 and 14043 in the assay with Daudi cells (compound 100 nM); 23096 and 16482 in the assay on Daudi cells (compound 300 nM); 13982 and 11893 with Daudi cells (compound 1000 nM); 18339 and 21903 with Daudi cells (compound 3000 nM).

Regarding `CCCCC[C@@H]1NC(=O)[C@H](CCCNC(=N)N)NC(=O)[C@H](C)NC(=O)CSC[C@@H](C(=O)NCCOCCOCCOCCOCCOCCOCCOCCOCCC(=O)NCCOCCOCCOCCOCCOCCOCCOCCOCCC(=O)N[C@@H](CC(=O)O)C(=O)N[C@H]2CSSC[C@@H](C(=O)N[C@H](C(=O)O)[C@@H](C)O)NC(=O)[C@H](Cc3c[nH]c4ccccc34)NC(=O)[C@H](C(C)C)NC(=O)[C@H](CC(C)C)NC(=O)[C@H](CCC(=O)O)NC(=O)CNC(=O)[C@H](CC(C)C)NC(=O)[C@H](Cc3c[nH]cn3)NC(=O)[C@H](Cc3c[nH]c4ccccc34)NC(=O)[C@H](C)NC2=O)NC(=O)[C@H](CC(=O)O)NC(=O)[C@H](CCCCC)NC(=O)[C@H](Cc2ccc(-c3ccccc3)cc2)NC(=O)[C@H](CC(C)C)NC(=O)[C@H](C(C)C)NC(=O)[C@H](CC(N)=O)NC(=O)[C@H](CC(=O)O)NC(=O)[C@H](Cc2c[nH]cn2)NC(=O)[C@H](Cc2ccc(O)cc2)NC1=O` [I-42], the EC50 in assay [1] (ADCC reporter assay) was found to be 1.4 nM. The “Luminescence, ADCC reporter assay” value in assay [1] (compound 0.3 nM) is 4468 RLU and 4661 RLU; in assay [1] (compound 1 nM), 13795 RLU and 13686 RLU; in assay [1] (compound 3 nM), 20721 RLU and 20652 RLU; in assay [1] (compound 10 nM), 32317 RLU and 32373 RLU; in assay [1] (compound 30 nM), 36909 RLU and 40202 RLU; in assay [1] (compound 100 nM), 40344 RLU and 39296 RLU. Also, the “Luminescence, ADCC reporter assay” value is 39826 RLU and 37835 RLU in assay [1] (compound 300 nM); 27516 RLU and 28425 RLU in assay [1] (compound 1000 nM). Also, the “MFI, recruitment” value in the assay with Daudi cells (compound 0.03 nM) is 7077 and 5990; in the assay on Daudi cells (compound 0.1 nM), 5737 and 4704; in the assay on Daudi cells (compound 0.3 nM), 3879 and 4284; in the assay on Daudi cells (compound 1 nM), 4981 and 6900; in the assay with Daudi cells (compound 3 nM), 6000 and 5101; in the assay on Daudi cells (compound 10 nM) it was 6189 and 11302. Besides, the “MFI, recruitment” value with Daudi cells (compound 30 nM) is 9700 and 15077; in the assay with Daudi cells (compound 100 nM), 16690 and 17157; with Daudi cells (compound 300 nM), 14190 and 18622; in the assay on Daudi cells (compound 1000 nM), 20476 and 15023; in the assay on Daudi cells (compound 3000 nM), 13519 and 15909.

B1: I-28 (peptide, part only; not given: PEG8 unit, part only)
peptide: [d(γGlu)][d(γGlu)][dE](12Ado)[d(γGlu)][d(γGlu)]GGDCAWHLGELVWCT
modifications: disulfide 9-19; not fully specified (N-terminus); also: N-terminal PEG8 joins a further peptide chain not given here
As for B1, in assay [2], the MFI at 1 nM is 216 and 385; the MFI at 3 nM is 400 and 751; the MFI at 10 nM was 1970 and 1940; the MFI at 30 nM is 4030 and 4740. For the same molecule, in assay [2], the MFI at 100 nM was 5110 and 5380; the MFI at 300 nM was 6240 and 5320; the MFI at 1000 nM was 5150 and 5380; the MFI at 3000 nM was 5220 and 5330.

Values taken from patent US20230028880A1, “CD38-BINDING AGENTS AND USES THEREOF” (Biohaven Therapeutics Ltd., priority 2019, published 2023).
